Data published in paper PMC11945475, “Nasal Administration of a Nanoemulsion Based on Methyl Ferulate and Eugenol Encapsulated in Chitosan Oleate: Uptake Studies in the Central Nervous System” (Pharmaceutics, 2025).

Tests used:
[1] = Intravenous administration of Fer-Me to rats (bloodstream and CSF pharmacokinetics); type: in vivo, rat
Description: Charles River laboratories, Calco, Italy) bloodstream and CSF. […] The sample size (4 rats/group) has been chosen based on our previous studies. The experimental procedures were approved by the Italian Ministry of Health and were performed in accordance with the European Communities Council Directive of September 2010 (2010/63/EU). According to the ARRIVE guidelines, all possible efforts were made to minimize animal pain and discomfort and to reduce the number of experimental subjects. Fer-Me solution (2.5 mg/mL final concentration, 15% v/v EtOH content) was prepared by first dissolving Fer-Me in EtOH and then adding this latter solution to a saline solution (0.9% NaCl). […] The aqueous phase was then subjected to a double extraction with 1 mL of H2O-saturated ethyl acetate. […] Data were acquired and processed through CLASS-VP Software; version 7.2.1 (Shimadzu Italia, Milan, Italy). The mobile phase was eluted under isocratic conditions (0.8 mL/min) and was constituted by a mixture of acetic acid in H2O (0.4% v/v) and MeOH, whose ratio was 40:60 (v/v). The UV-Vis detector was set at 320 nm for the detection of Fer-Me, its hydrolysis product Fer, and Caf-Me, which was utilized as an internal standard during blood sample extraction. […] The average recoveries were approximately 40% for Fer and 58% for Fer-Me. For this reason, the concentrations of these compounds were determined by their peak area ratio with respect to the internal standard (Caf-Me). […] Fer-Me in vivo half-life (t1/2) in the rats' bloodstream was determined using nonlinear regression (exponential decay) of concentration values quantified at appropriate time intervals after infusion, further validated by applying linear regression to the semi-logarithmic plot.

[2] = design: method as in PMID 33547615; conditions: rats, Fer at doses up to 40 mg/kg; cited from earlier work
[3] = rat, Fer 1 mg/kg i.v.; cited from earlier work
[4] = rat, after Fer-Me 10 mg/kg i.v. infusion

COc1cc(/C=C/C(=O)O)ccc1O [Fer, ferulic acid]
Fer AUC as percentage of the Fer-Me AUC value ([1]; rat bloodstream, after Fer-Me 10 mg/kg i.v.): 1.3%
Fer concentration in the bloodstream ([1]; rat, about 20 min after end of Fer-Me 10 mg/kg i.v. infusion): 0.205 ± 0.050 µg/mL
AUC of hydrolysis product Fer in the bloodstream [1, 4]: 8.4 ± 0.8 µg·min/mL
C0 of hydrolysis product Fer in the bloodstream [1, 4]: 209 ± 1 ng/mL
time within which Fer blood concentration decreased to zero ([1]; rat, from the end of Fer-Me 10 mg/kg i.v. infusion): ≤ 60 min
side effects [2]: no side effects
AUC in CSF [3]: 3.3 ± 0.3 µg·min/mL
AUC in the bloodstream [3]: 244 ± 13 µg·min/mL
Cmax in CSF [3]: 80 ± 10 ng/mL
Tmax in CSF [3]: 1 h
